According to patent EP4549575A1 (priority 2023, dated 2025):
Several values for one entry are separate records, joined by “and”; a condition that tells them apart may be missing. Equal values may be shown once. Square brackets hold non-standard residues; d marks the D form. Peptide text beside a SMILES is read from it. βAla = NCCC(=O)O

Experiments:
P. viticola = type: in vivo, Plasmopara viticola (Berk. et Curt.) Berl. and De Toni; conditions: grapevine (Vitis vinifera cv. Pinot noir) leaf discs; mean ± standard deviation vs untreated control; concentration not given
[1] = Chemical-physical properties (isoelectric point, net charge, solubility in water); type: physicochemical; conditions: for net charge: at pH 7
P. capsici = type: cell-based, Phytophthora capsici Leonian
[2] = Conformational studies based on circular dichroism; type: physicochemical
Description: Conformational studies based on circular dichroism were performed under different conditions, such as: • 10 mM phosphate buffer, pH 7 • MES buffer 10 mM, pH 6 • Buffer acetate 10 mM, pH 5 • Phosphate buffer 10 mM/TFE (1:1) • TFE (trifluoroethanol)
Conformational studies based on circular dichroism were performed under different conditions such as: • 10 mM phosphate buffer, pH7 • Phosphate buffer 10mM/TFE, pH7 (1:1) • TFE (trifluoroethanol)
Conformational studies based on circular dichroism were performed under different conditions, such as: • 10 mM phosphate buffer, pH7 • MES buffer 10 mM, pH6 • Buffer acetate 10 mM, pH5 • Phosphate buffer 10 mM/TFE, pH7 (1:1) • TFE (trifluoroethanol)
Conformational studies based on circular dichroism were performed under different conditions, such as: • 10 mM phosphate buffer, pH7 • 10mM phosphate buffer/TFE (1:1) • TFE (trifluoroethanol)

[3] = system: Agrobacterium tumefaciens GV3101; test: Specificity: growth in liquid culture (OD620); type: cell-based; conditions: 200 µM; LB medium; measured hourly up to 5 h
P. ultimum = type: cell-based, Pythium ultimum var. ultimum Trow
[4] = system: human kidney proximal tubular cells (HKC-8)
[5] = pH 7-TFE: phosphate buffer 10 mM/TFE (1:1)

Structure (SMILES)	P. viticola (IPP - %) (P. viticola)	isoelectric point [1] [pH]	net charge [1]	solubility in water [1]	P. capsici (PIC - %) (P. capsici)	Disordered (%) ([2]; 10 mM phosphate buffer, pH 7)	Helixes (%) ([2]; 10 mM phosphate buffer, pH 7)	Sheets (%) ([2]; 10 mM phosphate buffer, pH 7)	Turns (%) ([2]; 10 mM phosphate buffer, pH 7)	Disordered (%) ([2]; TFE (trifluoroethanol))	Helixes (%) ([2]; TFE (trifluoroethanol))	Sheets (%) ([2]; TFE (trifluoroethanol))	Turns (%) ([2]; TFE (trifluoroethanol))	Disordered (%) [2, 5] [%]	Helixes (%) [2, 5] [%]	Sheets (%) [2, 5] [%]	Turns (%) [2, 5] [%]	bacterial growth (OD620) [3]	P. ultimum (IPP - %) (P. ultimum)	cytotoxicity (cell viability, absorption at 570 nm) [4]	other results
CSCC[C@@H]1NC(=O)[C@H](Cc2c[nH]c3ccccc23)NC(=O)[C@H](CCCNC(=N)N)NC(=O)CCNC(=O)[C@H](CCCNC(=N)N)NC(=O)[C@H](CCCNC(=N)N)NC(=O)[C@H](Cc2ccc(O)cc2)NC(=O)[C@H](C(C)C)NC(=O)[C@H](CC(C)C)NC1=O [CP20, βA-R-W-M-L-V-Y-R-R] (cyclo(LVYRR[βAla]RWM))	89.93 ± 11.69 (b) %	12.4	+3	good solubility in water	100% and 100 ± 0 (a) %	32	6	40	22	33	10	35	22	34	8	36	22	no alteration in bacterial growth	75% and 75.98 ± 4.54 (c) %	not toxic to human cells	Disordered (%) ([2]; MES buffer 10 mM, pH 6): 34%; Helixes (%) ([2]; MES buffer 10 mM, pH 6): 8%; Sheets (%) ([2]; MES buffer 10 mM, pH 6): 37%; Turns (%) ([2]; MES buffer 10 mM, pH 6): 21%; Disordered (%) ([2]; acetate buffer 10 mM, pH 5): 31%; Helixes (%) ([2]; acetate buffer 10 mM, pH 5): 7%; Sheets (%) ([2]; acetate buffer 10 mM, pH 5): 39%; Turns (%) ([2]; acetate buffer 10 mM, pH 5): 23%
CC(C)C[C@@H]1NC(=O)[C@H](CCCNC(=N)N)NC(=O)CNC(=O)CCNC(=O)[C@H](C(C)C)NC(=O)[C@H](CCCNC(=N)N)NC(=O)[C@H](CC(C)C)NC(=O)[C@H](Cc2c[nH]c3ccccc23)NC(=O)[C@H](CCCNC(=N)N)NC1=O [CP32, βA-G-R-L-R-W-L-R-V] (cyclo(GRLRWLRV[βAla]))	95% and 94.92 ± 6.45 (b) %	14	+3	good solubility in water	89.25 ± 7.35 (b) %	43	5	34	18	47	6	29	18	44	5	33	18	no alteration in bacterial growth	85% and 85.42 ± 7.28 (b) %	not toxic to human cells	–
